Legend:
MCF7 = assay: Breast Cancer Cell Proliferation Assay (MCF-7), Cell Titer-Glo; format: cell-based; settings: Homo sapiens, MCF7 cells, 5 days of compound exposure
Protocol: Breast Cancer Cell Proliferation Assay (MCF-7)
MCF7 was expanded and maintained in the medium (Phenol red free DMEM/F12 (Hyclone SH30272.01) NEAA (Gibco11140-050) Na-pyruvate (Gibco 11360-070) and Re-stripped Charcoal stripped FBS (Gemini 100-119)). The cells were adjusted to a concentration of 3,000 cells per mL in the above media, and the cells were incubated (37° C., 5% CO2). The following day a 10-point, serial dilution of compounds was added to the cells at a final concentration ranging from 10-0.000005 μM for test compounds (17β-estradiol was used as a control). Additional cells were plated in 30 wells to serve as the day 1 (pretreatment) comparison. After 5 days of compound exposure, Cell Titer-Glo reagent was added to the cells and the relative luminescence units (RLUs) of each well was determined. Cell Titer-Glo was also added to 32 μL of medium without cells to obtain a background value. The plates were allowed to incubate at room temperature for 10 minutes to stabilize luminescent signal and the luminescence signal was recorded with EnSpire. The relative increase in cell number of each sample is determined as follows: (RLU sample-RLU background/RLU estrogen only treated cells-RLU background)×100=% inhibition.

[1] = Pharmacokinetic Determination (Mouse PK); format: in vivo, female CD-1 mice; settings: female; for AUC(0-t) / clearance / half-life / Vd / bioavailability / Cmax / Tmax: CD-1, plasma; for Vd: read-out: Vdss; for bioavailability: PO 10.0 mg/kg vs IV 3.0 mg/kg; for Kp at 2 h: CD-1, PO 10.0 mg/kg, Brain concentration vs plasma concentration at 2 hours post dosing, read-out: B/P ratio
Protocol: Pharmacokinetic Determination
Grouping female CD-1 mice weighing 20-30 g randomly to three groups; one group was administered with test compound at a dose of 3.0 mg/kg by intravenous injection, the other two groups were administered with test compound at a dose of 10.0 mg/kg by oral. The formulation for IV groups is DMSO/PEG400/30% HP-β-CD (5/20/75) and the formulation for PO groups is 25% HP-β-CD in 25 mM citrate buffer (pH3.0). After administering, blood samples of intravenous injection group were collected at time points of predose, 0.0833, 0.25, 0.5, 1, 2, 4, 8, 12 and 24 h; blood samples of oral group were collected at time points of predose, 0.25, 0.5, 1, 2, 4, 8, 12, and 24 h. Both blood samples and brain samples were collected at 2 hours post dosing for the second PO group. Standard curve was plotted based on concentrations of the samples in a suitable range, the concentrations of test compounds in plasma samples and brain samples were determined by using LC-MS/MS. Pharmacokinetic parameters were calculated according to drug concentration-time curve using a noncompartmental method by WinNonLin (Phoenix™, version 6.1) or other similar software.

| Structure (SMILES) | IC50 (MCF7; MCF7, 120 h) [nM] | AUC(0-t) ([1]; IV, 3.0 mg/kg) [µM·h] | clearance ([1]; IV, 3.0 mg/kg) [mL/min/kg] | half-life ([1]; IV, 3.0 mg/kg) [h] | Vd ([1]; IV, 3.0 mg/kg) [L/kg] | bioavailability [1] [%] | AUC(0-t) ([1]; PO, 10.0 mg/kg) [µM·h] | Cmax ([1]; PO, 10.0 mg/kg) [nM] | Tmax ([1]; PO, 10.0 mg/kg) [h] | half-life ([1]; PO, 10.0 mg/kg) [h] | Kp at 2 h [1] | IC50 (MCF7; 120 h) [nM] |
| --- | --- | --- | --- | --- | --- | --- | --- | --- | --- | --- | --- | --- |
| C[C@@H]1Cc2c([nH]c3ccccc23)[C@@H](c2cnc(NC3CN(CCCF)C3)cn2)N1C12CC(C1)C2 [Compound 16, 5-((1S,3R)-2-(bicyclo[1.1.1]pentan-1-yl)-3-methyl-2,3,4,9-tetrahydro-1H-pyrido[3,4-b]indol-1-yl)-N-(1-(3-fluoropropyl)azetidin-3-yl)pyrazin-2-amine] | ≤ 25 | 2.08 | 53.5 | 3.85 | 11.8 | 39.5 | 2.73 | 590 | 1 | 3.24 |  |  |
| C[C@@H]1Cc2c([nH]c3ccccc23)[C@@H](c2ccc(NC3CN(CCCF)C3)cc2)N1C12CC(C1)C2 [Compound 40, N-(4-((1R,3R)-2-(bicyclo[1.1.1]pentan-1-yl)-3-methyl-2,3,4,9-tetrahydro-1H-pyrido[3,4-b]indol-1-yl)phenyl)-1-(3-fluoropropyl)azetidin-3-amine] | ≤ 25 | 1.47 | 64.2 | 11.5 | 49.6 | 70.5 | 3.46 | 261 | 1 |  | 13.5 |  |
| C[C@@H]1Cc2c([nH]c3ccccc23)[C@@H](c2ccc(NC3CN(CCCF)C3)cc2F)N1C12CC(C1)C2 [Compound 15, N-(4-((1R,3R)-2-(bicyclo[1.1.1]pentan-1-yl)-3-methyl-2,3,4,9-tetrahydro-1H-pyrido[3,4-b]indol-1-yl)-3-fluorophenyl)-1-(3-fluoropropyl)azetidin-3-amine] | ≤ 25 | 0.892 | 100 | 10 | 66.4 | 47.3 | 1.45 | 200 | 1 | 9.2 | 10.8 |  |
| C[C@@H]1Cc2c([nH]c3ccccc23)[C@@H](c2ccc(NC3CN(CCCF)C3)cc2)N1C12CC(CO)(C1)C2 (single isomer, unassigned) [Compound 58] | ≤ 25 | 1.04 | 92 | 7.08 | 42.3 | 31.8 | 1.1 | 80 | 2 | 5.56 |  |  |
| C[C@@H]1Cc2c([nH]c3ccccc23)[C@@H](c2c(F)cc(O[C@H]3CCN(CCCF)C3)cc2F)N1C12CC(C1)C2 (single isomer, unassigned) [Compound 6] | ≤ 25 | 2.93 | 30.2 | 9.1 | 16.7 | 49.5 | 4.84 | 611 | 1 | 9.4 | 4.42 |  |
| C[C@@H]1Cc2c([nH]c3ccccc23)[C@@H](c2c(F)cc(NC3CN(CCCF)C3)cc2F)N1C12CC(C1)C2 [Compound 1, N-(4-((1R,3R)-2-(bicyclo[1.1.1]pentan-1-yl)-3-methyl-2,3,4,9-tetrahydro-1H-pyrido[3,4-b]indol-1-yl)-3,5-difluorophenyl)-1-(3-fluoropropyl)azetidin-3-amine] |  | 2.79 | 24.2 | 18 | 31.9 | 52.4 | 4.88 | 466 | 2 | 10.5 | 11 | ≤ 25 |
| CCCN1CC[C@H](Nc2ccc([C@@H]3c4[nH]c5ccccc5c4C[C@@H](C)N3C34CC(C3)C4)cc2)C1 [Compound 72, (S)—N-(4-((1R,3R)-2-(bicyclo[1.1.1]pentan-1-yl)-3-methyl-2,3,4,9-tetrahydro-1H-pyrido[3,4-b]indol-1-yl)phenyl)-1-propylpyrrolidin-3-amine] | ≤ 25 | 2.17 |  |  |  | 51.5 | 3.73 | 240 | 4 |  | 8.82 |  |
| C[C@@H]1Cc2c([nH]c3ccccc23)[C@@H](c2ccc(NC3CN(CCCF)C3)nc2)N1C12CC(C1)C2 [Compound 21, 5-((1R,3R)-2-(bicyclo[1.1.1]pentan-1-yl)-3-methyl-2,3,4,9-tetrahydro-1H-pyrido[3,4-b]indol-1-yl)-N-(1-(3-fluoropropyl)azetidin-3-yl)pyridin-2-amine] | > 250 | 0.59 |  |  |  | 5.03 | 0.1 | 60 | 0.25 | 1.01 |  |  |
| C[C@@H]1Cc2c([nH]c3ccccc23)[C@@H](c2c(F)cc(N[C@H]3CCN(CCCF)C3)cc2F)N1C12CC(CO)(C1)C2 (single isomer, unassigned) [Compound 70] | ≤ 25 | 2.46 | 36.1 | 6.51 | 12.2 | 21.4 | 2.09 | 210 | 2 | 5.25 |  |  |
| C[C@@H]1Cc2c([nH]c3ccccc23)[C@@H](c2ccc(N[C@@H]3CN(CCCF)C[C@H]3F)cc2)N1C12CC(C1)C2 [Compound 75, (3R,4R)—N-(4-((1R,3R)-2-(bicyclo[1.1.1]pentan-1-yl)-3-methyl-2,3,4,9-tetrahydro-1H-pyrido[3,4-b]indol-1-yl)phenyl)-4-fluoro-1-(3-fluoropropyl)pyrrolidin-3-amine] | ≤ 25 | 1.49 | 66.1 | 7.29 | 17.9 | 59.2 | 2.94 | 840 | 0.5 | 7.38 | 6.84 |  |
| C[C@@H]1Cc2c([nH]c3ccccc23)[C@@H](c2c(F)cc(NCCN3CCCC3)cc2F)N1C12CC(C1)C2 [Compound 22, 4-((1R,3R)-2-(bicyclo[1.1.1]pentan-1-yl)-3-methyl-2,3,4,9-tetrahydro-1H-pyrido[3,4-b]indol-1-yl)-3,5-difluoro-N-(2-(pyrrolidin-1-yl)ethyl)aniline] | 25 to 250 |  |  |  |  |  |  |  |  |  |  |  |
| C[C@@H]1Cc2c([nH]c3ccccc23)[C@@H](c2ccc(OCCN3CC(CF)C3)cc2F)N1C12CC(C1)C2 [Compound 25, (1R,3R)-2-(bicyclo[1.1.1]pentan-1-yl)-1-(2-fluoro-4-(2-(3-(fluoromethyl)azetidin-1-yl)ethoxy)phenyl)-3-methyl-2,3,4,9-tetrahydro-1H-pyrido[3,4-b]indole] | ≤ 25 |  |  |  |  |  |  |  |  |  |  |  |
| C[C@@H]1Cc2c([nH]c3ccccc23)[C@@H](c2ncc(OC3CN(CCCF)C3)cc2F)N1C12CC(C1)C2 [Compound 14, (1S,3R)-2-(bicyclo[1.1.1]pentan-1-yl)-1-(3-fluoro-5-((1-(3-fluoropropyl)azetidin-3-yl)oxy)pyridin-2-yl)-3-methyl-2,3,4,9-tetrahydro-1H-pyrido[3,4-b]indole] | ≤ 25 |  |  |  |  |  |  |  |  |  |  |  |
| C[C@@H]1Cc2c([nH]c3ccccc23)[C@@H](c2ccc(NC3CN(CC(C)(F)F)C3)cc2)N1C12CC(C1)C2 [Compound 88, N-(4-((1R,3R)-2-(bicyclo[1.1.1]pentan-1-yl)-3-methyl-2,3,4,9-tetrahydro-1H-pyrido[3,4-b]indol-1-yl)phenyl)-1-(2,2-difluoropropyl)azetidin-3-amine] | 25 to 250 |  |  |  |  |  |  |  |  |  |  |  |

Source: patent US11999728B2, “Estrogen receptor modulators” (Recurium IP Holdings, LLC, priority 2020, dated 2024)
